Assay results: US4456601A, “3-Chloro-pregnane derivatives and a process for the preparation thereof” (Richter Gedeon Vegyeszeti Gyar Rt., priority 1981, dated 1984)
pKd: −log10 of the molar value. Read-outs that look alike come from different tables or passages of the source.

What was measured:
[1] = tested on: carrageenin-induced planter oedema; experiment: Inhibition of carrageenin-induced planter oedema (systemic antiphlogistic effect); assay type: in vivo
Source text: (§1) Systemic antiphlogistic effect
(a) Inhibition of carrageenin-induced planter oedema [Winter et al.: J. Pharm. Exp. Therap. […]]

[2] = tested on: granuloma pouch; experiment: Granuloma pouch test according to Selye (systemic antiphlogistic effect); assay type: in vivo
Source text: as §1
(b) Granuloma pouch test according to Selye [J. Selye: Recent Progr. Horm. Res. 8, 117 (1953)]

[3] = tested on: cotton granuloma; experiment: Cotton granuloma test (systemic antiphlogistic effect); assay type: in vivo
Source text: as §1
(c) Cotton granuloma test [C. A. Winter et al: J. Pharm. Exp. Therap. 141, 369 (1963)]

[4] = tested on: granuloma pouch; experiment: Local pouch test according to Selye (local antiphlogistic effect); assay type: in vivo
Source text: (§2) Local antiphlogistic effect
(a) Local pouch test according to Selye [Bianchetti et al.: Arzneim. Forsch. 27, 2096 (1977)]

[5] = tested on: cotton granuloma; experiment: Local cotton granuloma test (local antiphlogistic effect); assay type: in vivo
Source text: as §2
(b) Local cotton granuloma test [B. Silvestrini: Arzneim. Forsch. 19, 30 (1969)]

[6] = tested on: ear inflammation provoked by croton oil; experiment: Inhibition of ear inflammation provoked by croton oil (local antiphlogistic effect); assay type: in vivo
Source text: as §2
(c) Inhibition of ear inflammation provoked by croton oil [Tonelli et al.: Endocrinology 77, 625 (1965)]

[7] = target: T1, rat liver glucocorticoid receptors (Rattus norvegicus, UniProt P06536); experiment: Affinity to rat liver glucocorticoid receptors (method of Baxter et al.); assay type: binding
T1 construct: from tissue; host or cells: rat liver
T1 sequence (P06536 1-795): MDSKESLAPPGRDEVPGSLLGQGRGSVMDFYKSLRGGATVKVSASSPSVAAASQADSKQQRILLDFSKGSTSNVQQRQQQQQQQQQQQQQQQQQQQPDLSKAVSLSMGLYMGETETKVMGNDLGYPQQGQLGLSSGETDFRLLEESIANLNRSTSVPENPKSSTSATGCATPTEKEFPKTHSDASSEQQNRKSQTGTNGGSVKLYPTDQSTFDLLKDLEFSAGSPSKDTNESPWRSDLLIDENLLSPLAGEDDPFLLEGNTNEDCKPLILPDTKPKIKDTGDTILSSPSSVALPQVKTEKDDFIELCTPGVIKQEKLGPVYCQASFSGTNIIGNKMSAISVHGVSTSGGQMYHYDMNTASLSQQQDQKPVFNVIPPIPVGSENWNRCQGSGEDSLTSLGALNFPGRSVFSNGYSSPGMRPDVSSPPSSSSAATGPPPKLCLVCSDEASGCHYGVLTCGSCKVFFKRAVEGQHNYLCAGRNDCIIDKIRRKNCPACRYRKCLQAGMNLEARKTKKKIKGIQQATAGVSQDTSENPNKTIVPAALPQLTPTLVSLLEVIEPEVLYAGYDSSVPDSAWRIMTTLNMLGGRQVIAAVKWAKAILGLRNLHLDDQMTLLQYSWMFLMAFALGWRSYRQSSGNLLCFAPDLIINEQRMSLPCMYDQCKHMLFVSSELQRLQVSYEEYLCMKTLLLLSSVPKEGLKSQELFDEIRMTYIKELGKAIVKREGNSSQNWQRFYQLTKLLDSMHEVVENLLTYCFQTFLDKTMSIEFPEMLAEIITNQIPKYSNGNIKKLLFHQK
Source text: A. Munck and K. Leung: "Receptors and Mechanism of Action of Steroid Hormones", Ed.

[8] = tested on: thymus weight; experiment: Thymus involution (reduction of thymus weight) in chickens; assay type: in vivo
Method: (§3) It is known that glucocorticoids cause thymus involution [O. Greengard, R. Machovich: "Hydrocortisone Regulation of Thymidine Kinase in Thymus Involution and Hematopoietic Tissues", Biochem. Biophys. Acta 286, 382-388 (1972)], 50% reduction of thymus weight was observed on chickens with a dose of 0.01 mg/100 g and on rats with a dose of 0.001 mg/100 g for both TCA and 3-chloro-TCA.

[9] = tested on: thymus weight; experiment: Thymus involution (reduction of thymus weight) in rats; assay type: in vivo
Method: as §3

[10] = target: T1, rat liver glucocorticoid receptors; settings: on the basis of literature data (Munck and Leung); read-out: apparent dissociation constant; cited from earlier work
[11] = rat liver glucocorticoid receptors, read-out: apparent dissociation constant

Compound | pKd [7, 11] | Inhibition % ([1]; 2 mg/kg p.o.) [%] | Inhibition % ([1]; 6 mg/kg p.o.) [%] | Inhibition % ([2]; 0.5 mg/kg s.c.) [%] | Inhibition % ([2]; 1.5 mg/kg s.c.) [%] | Inhibition % ([3]; 0.5 mg/kg s.c.) [%] | Inhibition % ([3]; 1.5 mg/kg s.c.) [%] | Inhibition % ([4]; 0.033 mg/pouch) [%] | Inhibition % ([4]; 0.10 mg/pouch) [%] | Inhibition % ([5]; 0.033 mg/cotton) [%] | Inhibition % ([5]; 0.10 mg/cotton) [%] | Inhibition % ([6]; 0.02 mg/ml) [%] | Inhibition % ([6]; 0.10 mg/ml) [%] | dose giving 50% reduction of thymus weight [8] [mg/100 g] | dose giving 50% reduction of thymus weight [9] [mg/100 g] | other results
CC(=O)OCC(=O)[C@@]12OC(C)(C)O[C@@H]1C[C@H]1[C@@H]3CC=C4C=C(Cl)C=C[C@]4(C)[C@@]3(F)[C@@H](O)C[C@@]12C [3-Chloro-TCA-21-acetate, 3-chloro-9α-fluoro-11β,16α,17α,21-tetrahydroxy-pregna-1,3,5-triene-20-one-16,17-acetonide-21-acetate] | – | 8.9 | 9.6 | 56.6 | 73.3 | 33.0 | 91.0 | 12.4 | 26.3 | 52.4 | 35.3 | 10.0 | 17.8 | – | – | –
CC1(C)O[C@@H]2C[C@H]3[C@@H]4C[C@H](F)C5=CC(=O)C=C[C@]5(C)[C@@]4(F)[C@@H](O)C[C@]3(C)[C@]2(C(=O)CO)O1 [fluocinolon-acetonide, 6α,9α-difluoro-11β,16α,17α,21-tetrahydro-pregna-1,4-diene-3,20-dione-16,17-acetonide, reference compound] | – | – | – | – | – | – | – | – | – | – | – | – | – | – | – | pKd [7]: 7.82
CC1(C)O[C@@H]2C[C@H]3[C@@H]4CCC5=CC(=O)C=C[C@]5(C)[C@@]4(F)[C@@H](O)C[C@]3(C)[C@]2(C(=O)CO)O1 [TCA, 9α-fluoro-11β,16α,17α,21-tetrahydroxy-pregna-1,4-diene-3,20-dione-16,17-acetonide, reference compound] | – | – | – | – | – | – | – | – | – | – | – | – | – | 0.01 | 0.001 | pKd [10]: 8.00

Now from value to compound, other results behind:

pKd [7, 11] | Compound | Inhibition % ([1]; 2 mg/kg p.o.) [%] | Inhibition % ([1]; 6 mg/kg p.o.) [%] | Inhibition % ([2]; 0.5 mg/kg s.c.) [%] | Inhibition % ([2]; 1.5 mg/kg s.c.) [%] | Inhibition % ([3]; 0.5 mg/kg s.c.) [%] | Inhibition % ([3]; 1.5 mg/kg s.c.) [%] | Inhibition % ([4]; 0.033 mg/pouch) [%] | Inhibition % ([4]; 0.10 mg/pouch) [%] | Inhibition % ([5]; 0.033 mg/cotton) [%] | Inhibition % ([5]; 0.10 mg/cotton) [%] | Inhibition % ([6]; 0.02 mg/ml) [%] | Inhibition % ([6]; 0.10 mg/ml) [%] | dose giving 50% reduction of thymus weight [8] [mg/100 g] | dose giving 50% reduction of thymus weight [9] [mg/100 g] | other results
7.60 | CC1(C)O[C@@H]2C[C@H]3[C@@H]4CC(F)=C5C=C(Cl)C=C[C@]5(C)[C@@]4(F)[C@@H](O)C[C@]3(C)[C@]2(C(=O)CO)O1 [Example 3-chloro-FCA, 3-chloro-6,9α-difluoro-11β,16α,17α,21-tetrahydroxy-pregna-1,3,5-triene-20-one-16,17-acetonide] | – | – | – | – | – | – | – | – | – | – | – | – | – | – | –
7.22 | CC1(C)O[C@@H]2C[C@H]3[C@@H]4CC(Br)=C5C=C(Cl)C=C[C@]5(C)[C@@]4(F)[C@@H](O)C[C@]3(C)[C@]2(C(=O)CO)O1 [3-chloro-6-bromo-TCA, 3-chloro-6-bromo-9α-fluoro-11β,16α,17α,21-tetrahydroxy-pregna-1,3,5-triene-20-one-16,17-acetonide] | – | – | – | – | – | – | – | – | – | – | – | – | – | – | –
7.52 | CC1(C)O[C@@H]2C[C@H]3[C@@H]4CC=C5C=C(Cl)C=C[C@]5(C)[C@@]4(F)[C@@H](O)C[C@]3(C)[C@]2(C(=O)CO)O1 [Example 3-Chloro-TCA, 3-chloro-9α-fluoro-11β,16α,17α,21-tetrahydroxy-pregna-1,3,5-triene-20-one-16,17-acetonide] | 30.2 | 38.7 | 90.8 | 90.1 | 22.0 | 26.0 | 26.0 | 32.3 | 24.1 | 51.4 | 30.0 | 52.9 | 0.01 | 0.001 | –
